This passage reports pest or weed control and plant injury results from patent US12077503B2, “Substituted cyclic amides and their use as herbicides” (FMC CORPORATION, priority 2015, dated 2024).

Read-outs that look alike come from different tables or passages of the source.

Holding throughout (assay type): in vivo
Assay [1] concerns ragweed (common ragweed, Ambrosia elatior). Kind of assay: Test A postemergence. To be noted: Ambrosia artemisiifolia, post-emergence, 240 h, postemergence; for pest or weed control at 125 g/ha: 125 g ai/ha. The method in brief: (§1)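 Visual injury scores from 0, no effect, to 100, complete control, were assigned versus untreated controls roughly 10 d after treatment in the greenhouse. Test chemicals, formulated with surfactant in a non-phytotoxic solvent, were applied to planted seeds as a preemergence soil spray or postemergence to one- to two-leaf plants 2 to 10 cm tall, in loam–sand soil.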

The subject of assay [2] is Galium (catchweed bedstraw, Galium aparine). Kind of assay: Test A postemergence. To be noted: Galium, post-emergence, 240 h, postemergence; for pest or weed control at 125 g/ha: 125 g ai/ha. The method in brief:
as §1

The next assay concerns Kochia (Kochia scoparia). Put plainly: Test A postemergence. To be noted: Bassia scoparia, post-emergence, 240 h, postemergence; for pest or weed control at 125 g/ha: 125 g ai/ha. The essentials:
as §1

Assay [3] has as its system giant foxtail (Setaria faberii). Kind of assay: Test A postemergence. To be noted: Setaria faberi, post-emergence, 240 h, postemergence; for pest or weed control at 125 g/ha: 125 g ai/ha. The method in brief:
as §1

For the next assay, the system named is corn (Zea mays). Put plainly: Test A postemergence. To be noted: Zea mays, post-emergence, 240 h, postemergence; for plant injury at 125 g/ha: 125 g ai/ha. The method in brief:
as §1

The subject of assay [4] is ryegrass, Italian (Italian ryegrass, Lolium multiflorum). Kind of assay: Test A postemergence. To be noted: Lolium multiflorum, post-emergence, 240 h, postemergence; for pest or weed control at 125 g/ha: 125 g ai/ha. The method in brief:
as §1

In assay [5] the test system is pigweed (Amaranthus retroflexus). Kind of assay: Test A postemergence. To be noted: Amaranthus retroflexus, post-emergence, 240 h, postemergence; for pest or weed control at 125 g/ha: 125 g ai/ha. The essentials: as §1
Assay [6] has as its system wheat (Triticum aestivum). Kind of assay: Test A postemergence. To be noted: Triticum aestivum, post-emergence, 240 h, postemergence; for plant injury at 125 g/ha: 125 g ai/ha. The essentials:
as §1

Assay [7] deals with barnyardgrass (Echinochloa crus-galli). Kind of assay: Test A postemergence. To be noted: Echinochloa crus-galli, post-emergence, 240 h, postemergence; for pest or weed control at 125 g/ha: 125 g ai/ha. The essentials:
as §1

Assay [8] concerns blackgrass (Alopecurus myosuroides). Kind of assay: Test A postemergence. To be noted: Alopecurus myosuroides, post-emergence, 240 h, postemergence; for pest or weed control at 125 g/ha: 125 g ai/ha. The essentials: as §1
Assay [9] concerns sedge, umbrella (small-flower umbrella sedge, Cyperus difformis). Kind of assay: Test B flooded paddy test. To be noted: Cyperus difformis, 250 g ai/ha, Flood, read-out: Sedge, Umbrella plant response rating. The essentials: (§2)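 Response scored visually against untreated controls, 0 = no effect and 100 = complete control, 13–15 d after treatment in the greenhouse. Compounds added to paddy water held 3 cm above soil surface. Treatment given at 2-leaf stage.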

The test system of assay [10] is ducksalad (Heteranthera limosa). Kind of assay: Test B flooded paddy test. To be noted: Heteranthera limosa, 250 g ai/ha, Flood, read-out: Ducksalad plant response rating. The essentials:
as §2

The test system of the next assay is rice (Oryra sativa). Kind of assay: Test B flooded paddy test. To be noted: Oryza sativa, 250 g ai/ha, Flood, read-out: Rice plant response rating. The essentials: as §2
Assay [11] has as its system barnyardgrass (Echinochloa crus-galli). Put plainly: Test B flooded paddy test. To be noted: Echinochloa crus-galli, 250 g ai/ha, Flood, read-out: Barnyardgrass plant response rating. The essentials:
as §2

Assay [12] relates to pigweed (Amaranthus retroflexus). Kind of assay: Test A preemergence. To be noted: Amaranthus retroflexus, pre-emergence, 240 h; for pest or weed control at 125 g/ha: 125 g ai/ha; for pest or weed control at 500 g/ha: 500 g ai/ha.
Where [13] appears, read: 0 to 100 scale where 0 is no effect and 100 is complete control.
Setting [14] is: preemergence, 0 to 100 scale where 0 is no effect and 100 is complete control, read-out: Pigweed plant response rating.
[15] abbreviates: scale of 0 to 100 where 0 is no effect and 100 is complete control.

As for `CCc1cc([C@H]2CNC(=O)[C@@H]2C(=O)Nc2cccc(F)c2F)cs1` [Compound 1155], the pest or weed control at 125 g/ha in assay [1] (visual injury vs untreated controls after approx. 10 d, 0 = no effect, 100 = complete control, read-out: Ragweed plant response rating (0 to 100 scale)) was found to be 0%; in assay [2] (visual injury vs untreated controls after approx. 10 d, 0 = no effect, 100 = complete control, read-out: Galium plant response rating (0 to 100 scale)), 40%; in the assay with Kochia (Kochia scoparia) (visual injury vs untreated controls after approx. 10 d, 0 = no effect, 100 = complete control, read-out: Kochia plant response rating (0 to 100 scale)), 0%; in assay [3] (visual injury vs untreated controls after approx. 10 d, 0 = no effect, 100 = complete control, read-out: Foxtail, Giant plant response rating (0 to 100 scale)) it was 30%; in assay [4] (visual injury vs untreated controls after approx. 10 d, 0 = no effect, 100 = complete control, read-out: Ryegrass, Italian plant response rating (0 to 100 scale)), 0%; in assay [5] (visual injury vs untreated controls after approx. 10 d, 0 = no effect, 100 = complete control, read-out: Pigweed plant response rating (0 to 100 scale)), 0%. Also, the pest or weed control at 125 g/ha in [7] (visual injury vs untreated controls after approx. 10 d, 0 = no effect, 100 = complete control, read-out: Barnyardgrass plant response rating (0 to 100 scale)) stood at 80%; in [8] (visual injury vs untreated controls after approx. 10 d, 0 = no effect, 100 = complete control, read-out: Blackgrass plant response rating (0 to 100 scale)), 0%; in assay [12] (preemergence, 0 to 100 scale where 0 is no effect and 100 is complete control, approx. 10 d, read-out: Pigweed plant response rating) it was 0%. In addition, the pest or weed control at 500 g/ha in assay [1] (500 g ai/ha, 0 to 100 scale, 0 is no effect, 100 is complete control, read-out: Ragweed plant response rating) was 40%; in [2] (500 g ai/ha, 0 to 100 scale, 0 is no effect, 100 is complete control, read-out: Galium plant response rating), 60%; with Kochia (Kochia scoparia) (500 g ai/ha, 0 to 100 scale, 0 is no effect, 100 is complete control, read-out: Kochia plant response rating) it was 0%; in assay [3] (500 g ai/ha, 0 to 100 scale, 0 is no effect, 100 is complete control, read-out: Foxtail, Giant plant response rating), 70%; in [4] (500 g ai/ha, 0 to 100 scale, 0 is no effect, 100 is complete control, read-out: Ryegrass, Italian plant response rating), 20%; in assay [5] (500 g ai/ha, 0 to 100 scale, 0 is no effect, 100 is complete control, read-out: Pigweed plant response rating), 0%. For the same compound, the pest or weed control at 500 g/ha in assay [7] (500 g ai/ha, 0 to 100 scale, 0 is no effect, 100 is complete control, read-out: Barnyardgrass plant response rating) came out at 90%; in assay [8] (500 g ai/ha, 0 to 100 scale, 0 is no effect, 100 is complete control, read-out: Blackgrass plant response rating), 0%; in assay [12] (setting [14]), 30%. The plant injury at 125 g/ha in the assay on corn (Zea mays) (visual injury vs untreated controls after approx. 10 d, 0 = no effect, 100 = complete control, read-out: Corn plant response rating (0 to 100 scale)) was determined as 20%; in assay [6] (visual injury vs untreated controls after approx. 10 d, 0 = no effect, 100 = complete control, read-out: Wheat plant response rating (0 to 100 scale)) it was 20%. Further, the plant injury at 500 g/ha stood at 30% in the assay on corn (Zea mays) (500 g ai/ha, 0 to 100 scale, 0 is no effect, 100 is complete control, read-out: Corn plant response rating) and 50% in [6] (500 g ai/ha, 0 to 100 scale, 0 is no effect, 100 is complete control, read-out: Wheat plant response rating). In addition, the pest or weed control at 250 g/ha in assay [9] (setting [13]) came out at 0%; in assay [10] (setting [13]), 100%; in the assay on rice (Oryra sativa) (setting [13]), 20%; in assay [11] (setting [13]) it was 50%.

Turning to `COc1c(F)ccc([C@H]2CNC(=O)[C@@H]2C(=O)Nc2ccccc2F)c1Cl` [Compound 881], the pest or weed control at 125 g/ha in assay [1] (visual injury rating after approximately 10 d, read-out: Ragweed plant response rating (0 to 100 scale, 0 no effect, 100 complete control)) is 0%; in [2] (visual injury rating after approximately 10 d, read-out: Galium plant response rating (0 to 100 scale, 0 no effect, 100 complete control)) it was 0%; in the assay with Kochia (Kochia scoparia) (visual injury rating after approximately 10 d, read-out: Kochia plant response rating (0 to 100 scale, 0 no effect, 100 complete control)) it was 30%; in assay [3] (visual injury rating after approximately 10 d, read-out: Foxtail, Giant plant response rating (0 to 100 scale, 0 no effect, 100 complete control)), 80%; in assay [4] (visual injury rating after approximately 10 d, read-out: Ryegrass, Italian plant response rating (0 to 100 scale, 0 no effect, 100 complete control)), 30%; in [5] (visual injury rating after approximately 10 d, read-out: Pigweed plant response rating (0 to 100 scale, 0 no effect, 100 complete control)), 0%. The pest or weed control at 125 g/ha is 90% in [7] (visual injury rating after approximately 10 d, read-out: Barnyardgrass plant response rating (0 to 100 scale, 0 no effect, 100 complete control)); 0% in [8] (visual injury rating after approximately 10 d, read-out: Blackgrass plant response rating (0 to 100 scale, 0 no effect, 100 complete control)); 0% in assay [12] (setting [14]). Moreover, the plant injury at 125 g/ha in the assay on corn (Zea mays) (visual injury rating after approximately 10 d, read-out: Corn plant response rating (0 to 100 scale, 0 no effect, 100 complete control)) is 0%; in assay [6] (visual injury rating after approximately 10 d, read-out: Wheat plant response rating (0 to 100 scale, 0 no effect, 100 complete control)) it was 0%. Moreover, the pest or weed control at 250 g/ha was 0% in [9] (setting [15]), 100% in [10] (setting [15]), 15% in the assay on rice (Oryra sativa) (setting [15]) and 45% in assay [11] (setting [15]). Besides, the pest or weed control at 500 g/ha in assay [12] (Preemergence, visual injury vs untreated controls after approximately 10 d, read-out: Pigweed plant response rating (0 to 100 scale where 0 is no effect and 100 is complete control)) is 0%.
